Laboratory results as given in PubChem BioAssay AID206 (DTP/NCI, 2004).
Several values for one entry are separate records, joined by “and”; a condition that tells them apart may be missing. Identical values can stand only once. Results filed as inconclusive are left out.

System: nude mice, HT29 intrarenal xenograft, tumor weight T/C
Experiment: NCI In Vivo Anticancer Drug Screen. Data for tumor model HT29;CX-1 Human Adenocarcinoma (MER+) (intrarenal inoculation) in NU/NU Swiss (nude) mice
Settings: endpoint: mean tumor weight change, higher = larger tumour
Procedure, shortened: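 Readout: treated/vehicle-control ratio of the measured endpoint (tumor size or survival) in transplanted-tumor mice.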

[1] = dose: 37.5 mg/kg/injection, schedule: Q04DX004 (sc), vehicle: saline with Tween-80
[2] = dose: 75.0 mg/kg/injection, schedule: Q04DX004 (sc), vehicle: saline with Tween-80
[3] = dose: 150.0 mg/kg/injection, schedule: Q04DX004 (sc), vehicle: saline with Tween-80
[4] = dose: 300.0 mg/kg/injection, schedule: Q04DX004 (sc), vehicle: saline
[5] = dose: 600.0 mg/kg/injection, schedule: Q04DX004 (sc), vehicle: saline
[6] = dose: 225.0 mg/kg/injection, schedule: Q04DX004 (sc), vehicle: saline with Tween-80
[7] = dose: 450.0 mg/kg/injection, schedule: Q04DX004 (sc), vehicle: saline with Tween-80
[8] = dose: 900.0 mg/kg/injection, schedule: Q04DX004 (sc), vehicle: saline with Tween-80
[9] = dose: 1200.0 mg/kg/injection, schedule: Q04DX004 (sc), vehicle: saline with Tween-80
[10] = dose: 1800.0 mg/kg/injection, schedule: Q04DX004 (sc), vehicle: saline with Tween-80
[11] = dose: 2400.0 mg/kg/injection, schedule: Q04DX004 (sc), vehicle: saline with Tween-80
[12] = dose: 150.0 mg/kg/injection, schedule: Q04DX004 (sc), vehicle: Klucel (hydroxypropylcellulose) (HPC)
[13] = dose: 300.0 mg/kg/injection, schedule: Q04DX004 (sc), vehicle: Klucel (hydroxypropylcellulose) (HPC)
[14] = dose: 600.0 mg/kg/injection, schedule: Q04DX004 (sc), vehicle: Klucel (hydroxypropylcellulose) (HPC)
[15] = dose: 300.0 mg/kg/injection, schedule: Q04DX004 (sc), vehicle: saline with Tween-80
[16] = dose: 600.0 mg/kg/injection, schedule: Q04DX004 (sc), vehicle: saline with Tween-80

SMILES: C1CC[N-]CC1.[Cl][Pt+2][Cl].[NH-]C1CC1
- T/C (dose: 50.0 mg/kg/injection, schedule: Q04DX004 (sc), vehicle: water): 51 % of control and 54 % of control
- T/C (dose: 100.0 mg/kg/injection, schedule: Q04DX004 (sc), vehicle: water): 17 % of control

SMILES: OC1CCCC2CCCNC12 (centres undefined)
- T/C [1]: 85 % of control
- T/C [2]: 77 % of control
- T/C [3]: 83 % of control

SMILES: CN1CCN(c2ccc3nc(-c4ccc5nc(-c6ccc(O)cc6)[nH]c5c4)[nH]c3c2)CC1
- T/C (dose: 100.0 mg/kg/injection, schedule: Q04DX004 (sc), vehicle: saline): 35 % of control
- T/C (dose: 200.0 mg/kg/injection, schedule: Q04DX004 (sc), vehicle: saline): 61 % of control
- T/C (dose: 800.0 mg/kg/injection, schedule: Q04DX004 (sc), vehicle: saline): 56 % of control

SMILES: CSc1ccc2c(c1)C(N1CCN(C)CC1)Cc1ccccc1S2 (centres undefined)
- T/C (dose: 12.5 mg/kg/injection, schedule: Q04DX004 (sc), vehicle: saline with Tween-80): 80 % of control
- T/C (dose: 25.0 mg/kg/injection, schedule: Q04DX004 (sc), vehicle: saline with Tween-80): 98 % of control
- T/C (dose: 50.0 mg/kg/injection, schedule: Q04DX004 (sc), vehicle: saline with Tween-80): 124 % of control

SMILES: S=P(N1CC1)(N1CC1)N1CC1
- T/C (dose: 1.0 mg/kg/injection, schedule: Q01DX010 (sc), vehicle: saline): 34 % of control
- T/C (dose: 2.0 mg/kg/injection, schedule: Q01DX010 (sc), vehicle: saline): 80 % of control

SMILES: Cc1cc(C)c(-c2cc(O)c(C)cc2O)c(C)c1
- T/C (dose: 1200.0 mg/kg/injection, schedule: Q04DX004 (sc), vehicle: Klucel (hydroxypropylcellulose) (HPC)): 68 % of control
- T/C (dose: 2400.0 mg/kg/injection, schedule: Q04DX004 (sc), vehicle: Klucel (hydroxypropylcellulose) (HPC)): 71 % of control

SMILES: O=CC(=O)c1ccc(O)cc1
- T/C (dose: 150.0 mg/kg/injection, schedule: Q04DX004 (sc), vehicle: saline): 73 % of control
- T/C [4]: 67 % of control
- T/C [5]: 56 % of control

SMILES: Oc1cc2ccccc2c(-c2c(O)c(O)cc3ccccc23)c1O
- T/C [6]: 101 % of control
- T/C [7]: 55 % of control
- T/C [8]: 86 % of control
- T/C [9]: 120 % of control
- T/C [10]: 28 % of control
- T/C [11]: 94 % of control

SMILES: C=C1C(=O)O[C@@H]2[C@H](O)[C@@H](C)[C@@H]3C=CC(=O)[C@@]3(C)[C@H](OC(=O)C=C(C)C)[C@H]12
- T/C (dose: 9.38 mg/kg/injection, schedule: Q04DX004 (sc), vehicle: saline with Tween-80): 93 % of control
- T/C (dose: 18.75 mg/kg/injection, schedule: Q04DX004 (sc), vehicle: saline with Tween-80): 121 % of control
- T/C [1]: 87 % of control

SMILES: COc1cccc2c1C(=O)c1c(O)c3c(c(O)c1C2=O)C[C@@](O)(C(=O)CO)C[C@@H]3OC1CC(N(C)C)C(O)C(C)O1 (some centres undefined)
- T/C (dose: 1.0 mg/kg/injection, schedule: Q01DX010 (sc), vehicle: water): 19 % of control
- T/C (dose: 2.0 mg/kg/injection, schedule: Q01DX010 (sc), vehicle: water): 94 % of control
- T/C (dose: 4.0 mg/kg/injection, schedule: Q01DX010 (sc), vehicle: water): 29 % of control

SMILES: COC1CC(C)C(OC)C2=CC(=O)C=C(NC(=O)/C(C)=C/C=C\C(C)C(OC(N)=O)/C(C)=C\C(C)C1OC)C2=O (centres undefined)
- T/C (dose: 12.5 mg/kg/injection, schedule: Q04DX004 (sc), vehicle: saline + alcohol): 99 % of control
- T/C (dose: 25.0 mg/kg/injection, schedule: Q04DX004 (sc), vehicle: saline + alcohol): 73 % of control
- T/C (dose: 50.0 mg/kg/injection, schedule: Q04DX004 (sc), vehicle: saline + alcohol): 53 % of control

SMILES: CC[C@H](CC[C@@H](C)C1CC[C@H]2[C@@H]3CC=C4C[C@@H](OP(=O)(N5CC5)N5CC5)CC[C@]4(C)[C@H]3CC[C@]12C)C(C)C (some centres undefined)
- T/C (dose: 100.0 mg/kg/injection, schedule: Q01DX010 (sc), vehicle: saline with Tween-80): 73 % of control
- T/C (dose: 800.0 mg/kg/injection, schedule: Q01DX010 (sc), vehicle: saline with Tween-80): 97 % of control

SMILES: O=NN(CCCl)C(=O)Oc1cc(Cl)c(Cl)cc1Cl
- T/C [12]: 94 % of control
- T/C [13]: 83 % of control
- T/C [14]: 92 % of control

SMILES: Cc1[nH]c(=O)[nH]c(=O)c1N(CCF)CCCl
- T/C (dose: 10.0 mg/kg/injection, schedule: Q01DX010 (sc), vehicle: Klucel (hydroxypropylcellulose) (HPC)): 117 % of control
- T/C (dose: 20.0 mg/kg/injection, schedule: Q01DX010 (sc), vehicle: Klucel (hydroxypropylcellulose) (HPC)): 95 % of control
- T/C (dose: 40.0 mg/kg/injection, schedule: Q01DX010 (sc), vehicle: Klucel (hydroxypropylcellulose) (HPC)): 48 % of control

SMILES: CCCCNC(C)[C@]1(O)Cc2c(O)c3c(c(O)c2[C@@H](OC2CC(N)C(O)C(C)O2)C1)C(=O)c1c(OC)cccc1C3=O (some centres undefined)
- T/C (dose: 3.12 mg/kg/injection, schedule: Q01DX010 (sc), vehicle: saline): 179 % of control
- T/C (dose: 12.5 mg/kg/injection, schedule: Q01DX010 (sc), vehicle: saline): 103 % of control
- T/C (dose: 25.0 mg/kg/injection, schedule: Q01DX010 (sc), vehicle: saline): 94 % of control

SMILES: CC(=O)NC(Cc1ccc(F)cc1)C(=O)O (centres undefined)
- T/C [6]: 108 % of control
- T/C [7]: 114 % of control
- T/C [8]: 83 % of control
- T/C [10]: 106 % of control

SMILES: C=CCc1cn(C2CC(O)C(CO)O2)c(=O)[nH]c1=O (centres undefined)
- T/C [4]: 71 % of control
- T/C [5]: 99 % of control
- T/C (dose: 1200.0 mg/kg/injection, schedule: Q04DX004 (sc), vehicle: saline): 64 % of control
- T/C (dose: 2400.0 mg/kg/injection, schedule: Q04DX004 (sc), vehicle: saline): 71 % of control

SMILES: CN1CCc2c(c3ccccc3c3ccccc23)C1
- T/C [12]: 105 % of control
- T/C [13]: 80 % of control
- T/C [14]: 111 % of control

SMILES: CC(C)CCCCCCCCCCCCC(=O)NCC(=O)NC1C(C)OC(Nc2ncnc3nc[nH]c23)C(O)C1O (centres undefined)
- T/C (dose: 2.0 mg/kg/injection, schedule: Q01DX010 (sc), vehicle: distilled water + Tween-80): -35 % of control
- T/C (dose: 2.0 mg/kg/injection, schedule: Q01DX010 (sc), vehicle: saline with Tween-80): -6 % of control
- T/C (dose: 4.0 mg/kg/injection, schedule: Q04DX004 (sc), vehicle: distilled water + Tween-80): 37 % of control
- T/C (dose: 8.0 mg/kg/injection, schedule: Q01DX010 (sc), vehicle: distilled water + Tween-80): 20 % of control
- T/C (dose: 8.0 mg/kg/injection, schedule: Q04DX004 (sc), vehicle: distilled water + Tween-80): 36 % of control
- T/C (dose: 16.0 mg/kg/injection, schedule: Q01DX010 (sc), vehicle: saline with Tween-80): 23 % of control

SMILES: COc1cc(C)c2c(c1C=O)Oc1c(c(C)c(O)c3c1C(O)OC3=O)OC2=O (centres undefined)
- T/C (dose: 50.0 mg/kg/injection, schedule: Q01DX010 (sc), vehicle: saline): 68 % of control
- T/C (dose: 200.0 mg/kg/injection, schedule: Q01DX010 (sc), vehicle: saline): 50 % of control

SMILES: CCC(CC)COC(=O)c1ccccc1C(=O)OCC(CC)CC
- T/C [15]: 94 % of control
- T/C [16]: 53 % of control
- T/C [9]: 81 % of control
- T/C [11]: 71 % of control

SMILES: C=C1C(=O)C23[C@H](O)C1CC[C@H]2[C@]12COC3(O)[C@@H](O)[C@@H]1C(C)(C)CC[C@@H]2O
- T/C (dose: 25.0 mg/kg/injection, schedule: Q04DX004 (sc), vehicle: Klucel (hydroxypropylcellulose) (HPC)): 80 % of control

SMILES: Cc1cc(N2C(=O)CCSC2=S)ccc1Cl
- T/C (dose: 75.0 mg/kg/injection, schedule: Q04DX004 (sc), vehicle: Klucel (hydroxypropylcellulose) (HPC)): 37 % of control
- T/C [12]: 55 % of control
- T/C [13]: 30 % of control

SMILES: COc1ccc(-c2csc(=[N+]3CCCCC3)s2)cc1
- T/C (dose: 6.25 mg/kg/injection, schedule: Q04DX004 (sc), vehicle: water): 227 % of control
- T/C (dose: 12.5 mg/kg/injection, schedule: Q04DX004 (sc), vehicle: water): 118 % of control

SMILES: ClCc1ccc2ccccc2n1
- T/C [2]: 82 % of control
- T/C [3]: 88 % of control
- T/C [15]: 86 % of control
- T/C [16]: 53 % of control

SMILES: CC(=O)Nc1ccc(S(=O)(=O)CO)cc1
- T/C [6]: 73 % of control
- T/C [7]: 57 % of control
